Test [1] concerns the target T1, Potassium voltage-gated channel subfamily A member 3 (Homo sapiens, UniProt P22001). More on the design: species or system Blood.
In test [2] the target is T1, Potassium voltage-gated channel subfamily A member 3. Description: cell-based. More on the design: species or system Blood.
The target is the same in test [3]. It is filed as cell-based, CHO-K1.

T1 sequence (P22001 whole entry): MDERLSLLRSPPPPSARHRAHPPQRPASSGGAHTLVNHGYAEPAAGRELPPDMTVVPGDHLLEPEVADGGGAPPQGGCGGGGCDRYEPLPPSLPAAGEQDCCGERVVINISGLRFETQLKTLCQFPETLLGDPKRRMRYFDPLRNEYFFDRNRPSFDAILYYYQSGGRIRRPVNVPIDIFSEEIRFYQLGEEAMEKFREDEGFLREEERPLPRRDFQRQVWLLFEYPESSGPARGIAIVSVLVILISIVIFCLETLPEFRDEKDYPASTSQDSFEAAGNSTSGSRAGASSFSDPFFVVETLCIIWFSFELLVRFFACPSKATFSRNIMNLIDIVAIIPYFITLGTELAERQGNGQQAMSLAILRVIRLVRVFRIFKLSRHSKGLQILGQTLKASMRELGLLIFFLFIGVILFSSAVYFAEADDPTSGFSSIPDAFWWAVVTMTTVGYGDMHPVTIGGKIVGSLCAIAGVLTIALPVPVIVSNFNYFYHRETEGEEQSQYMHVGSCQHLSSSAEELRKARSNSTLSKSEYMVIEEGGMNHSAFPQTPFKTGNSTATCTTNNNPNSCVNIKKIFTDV

Regarding `CC[C@H](C)[C@@H]1NC(=O)[C@@H](NC(=O)[C@H](CO)NC(=O)[C@@H](N)CCC(=O)O)CSSC[C@@H](C(=O)O)NC(=O)[C@H]([C@@H](C)O)NC(=O)CNC(=O)[C@@H]2CSSC[C@@H]3NC(=O)[C@H](CCC(N)=O)NC(=O)[C@H](Cc4ccccc4)NC(=O)[C@H](C)NC(=O)[C@H]([C@@H](C)O)NC(=O)[C@H](CSSC[C@H](NC(=O)[C@H](Cc4ccccc4)NC(=O)[C@H](CO)NC(=O)[C@H](CC(C)C)NC(=O)[C@H](CCCNC(=N)N)NC(=O)[C@H](Cc4ccc(O)cc4)NC(=O)[C@H](CCCCN)NC(=O)[C@H](CCSC)NC(=O)[C@H](CO)NC(=O)[C@H](Cc4cnc[nH]4)NC(=O)[C@H](CCCCN)NC3=O)C(=O)N[C@@H](CCCNC(=N)N)C(=O)N[C@@H](CCCCN)C(=O)N[C@@H]([C@@H](C)O)C(=O)N2)NC(=O)[C@H](CCCNC(=N)N)NC(=O)[C@H](CO)NC(=O)[C@H](CCCCN)NC(=O)[C@@H]2CCCN2C(=O)[C@H]([C@@H](C)CC)NC(=O)[C@H]([C@@H](C)O)NC(=O)[C@H](CC(=O)O)NC1=O`, the IC50 (as a rule, the concentration needed to halve the response being measured) in test [1] came out at 249 pM; in test [2], 214 pM; in test [3], 151 pM.

Turning to `CC[C@H](C)[C@@H]1NC(=O)[C@@H](NC(=O)[C@H](CCC(=O)O)NC(=O)[C@@H](N)CCCNC(=N)N)CSSC[C@@H](C(=O)O)NC(=O)[C@H]([C@@H](C)O)NC(=O)CNC(=O)[C@@H]2CSSC[C@@H]3NC(=O)[C@H](CCC(N)=O)NC(=O)[C@H](Cc4ccccc4)NC(=O)[C@H](C)NC(=O)[C@H]([C@@H](C)O)NC(=O)[C@H](CSSC[C@H](NC(=O)[C@H](Cc4ccccc4)NC(=O)[C@H](CO)NC(=O)[C@H](CC(C)C)NC(=O)[C@H](CCCNC(=N)N)NC(=O)[C@H](Cc4ccc(O)cc4)NC(=O)[C@H](CCCCN)NC(=O)[C@H](CCSC)NC(=O)[C@H](CO)NC(=O)[C@H](Cc4cnc[nH]4)NC(=O)[C@H](CCCCN)NC3=O)C(=O)N[C@@H](CCCNC(=N)N)C(=O)N[C@@H](CCCCN)C(=O)N[C@@H]([C@@H](C)O)C(=O)N2)NC(=O)[C@H](CCCNC(=N)N)NC(=O)[C@H](CO)NC(=O)[C@H](CCCCN)NC(=O)[C@@H]2CCCN2C(=O)[C@H]([C@@H](C)CC)NC(=O)[C@H]([C@@H](C)O)NC(=O)[C@H](CC(=O)O)NC1=O`, the IC50 was determined as 39 pM in test [1], 29 pM in test [2] and 95 pM in test [3].

With `CC[C@H](C)[C@@H]1NC(=O)[C@H]([C@@H](C)O)NC(=O)[C@H](CC(=O)O)NC(=O)[C@H](CCC(=O)O)NC(=O)[C@@H](NC(=O)[C@H](CO)NC(=O)[C@@H](N)CCCNC(=N)N)CSSC[C@@H](C(=O)O)NC(=O)[C@H]([C@@H](C)O)NC(=O)CNC(=O)[C@@H]2CSSC[C@@H]3NC(=O)[C@H](CCC(N)=O)NC(=O)[C@H](Cc4ccccc4)NC(=O)[C@H](C)NC(=O)[C@H]([C@@H](C)O)NC(=O)[C@H](CSSC[C@H](NC(=O)[C@H](Cc4ccccc4)NC(=O)[C@H](CO)NC(=O)[C@H](CC(C)C)NC(=O)[C@H](CCCNC(=N)N)NC(=O)[C@H](Cc4ccc(O)cc4)NC(=O)[C@H](CCCCN)NC(=O)[C@H](CCSC)NC(=O)[C@H](CO)NC(=O)[C@H](Cc4cnc[nH]4)NC(=O)[C@H](CCCCN)NC3=O)C(=O)N[C@@H](CCCNC(=N)N)C(=O)N[C@@H](CCCCN)C(=O)N[C@@H]([C@@H](C)O)C(=O)N2)NC(=O)[C@H](CCCNC(=N)N)NC(=O)[C@H](CO)NC(=O)[C@H](CCCCN)NC(=O)[C@@H]2CCCN2C1=O`, the IC50 amounted to 50 pM in test [1], 31 pM in test [2] and 75 pM in test [3].

(Values after ChEMBL document CHEMBL3608278 (J Med Chem, 2015).)
